For the experiment, the system named is pathogenic bacteria. In words: MIC by microdilution broth method (NCCLS M7-A4), in vitro antibacterial activity. The experiment is classed as cell-based. The essentials:
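MIC read after 35 °C incubation for 16–20 h relative to drug-free growth wells. Cation-adjusted Mueller-Hinton broth with two-fold compound dilutions, organisms at roughly 5×10^4 CFU/well final. Method follows NCCLS document M7-A4.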

Setting [1] is: Staphylococcus aureus, Organism A: Staphylococcus aureus OC4172, read-out: MIC.
Setting [2] is: Streptococcus pneumoniae, ATCC49619, Organism E: Streptococcus pneumoniae ATCC 49619, read-out: MIC.
Where [3] appears, read: Streptococcus pneumoniae, Organism B: fluoroquinolone-resistant clinical isolate of Streptococcus pneumoniae (QRDR amino acid substitutions).
The mark [4] stands for this setting: Streptococcus pneumoniae, Organism C: fluoroquinolone-resistant clinical isolate of Streptococcus pneumoniae (QRDR amino acid substitutions).
The mark [5] stands for this setting: Streptococcus pneumoniae, Organism D: fluoroquinolone-resistant clinical isolate of Streptococcus pneumoniae (QRDR amino acid substitutions).

Converted amounts (≈) assume the structure as drawn. Where two headings read alike, the source gives them in different places.

The MIC is the lowest concentration that inhibits growth of the organism. Consider `Cc1c(N2CCC(=C(Cl)CN)CC2)c(F)cc2c(=O)c(C(=O)O)cn(C3CC3)c12` [Compound 371, 7-[4-(2-Amino-1-chloro-ethylidene)-piperidin-1-yl]-1-cyclopropyl-6-fluoro-8-methyl-4-oxo-1,4-dihydro-quinoline-3-carboxylic Acid], for which the MIC by setting is: under setting [1], ≤ 0.015 µg/mL; under setting [2], 0.03 µg/mL (≈ 0.0714 µM); under setting [3], 0.06 µg/mL (≈ 0.143 µM); under setting [4], 0.12 µg/mL (≈ 0.286 µM); under setting [5], 0.12 µg/mL (≈ 0.286 µM).

Turning to `NCC=C1CCN(c2nc3c(cc2F)c(=O)c(C(=O)O)cn3C2CC2)CC1O` (stereo not shown) [Compound 60, 7-[4-(2-Amino-ethylidene)-3-hydroxy-piperidin-1-yl]-1-cyclopropyl-6-fluoro-4-oxo-1,4-dihydro-[1,8]naphthyridine-3-carboxylic acid], the MIC was determined as 2 µg/mL (≈ 5.15 µM) under setting [1], 16 µg/mL (≈ 41.2 µM) under setting [2] and 16 µg/mL (≈ 41.2 µM) under setting [4].

Consider `CC(CN)=C1CCN(c2nc3c(cc2F)c(=O)c(C(=O)O)cn3C2CC2)CC1O` (stereo not shown) [Compound 62, 7-[4-(2-Amino-1-methyl-ethylidene)-3-hydroxy-piperidin-1-yl]-1-cyclopropyl-6-fluoro-4-oxo-1,4-dihydro-[1,8]naphthyridine-3-carboxylic acid], for which the MIC is 2 µg/mL (≈ 4.97 µM) under setting [1], 8 µg/mL (≈ 19.9 µM) under setting [2], > 16 µg/mL under setting [3] and > 16 µg/mL under setting [4].

For `NCC(F)=C1CCN(c2nc3c(cc2F)c(=O)c(C(=O)O)cn3C2CC2)CC1` [Compound 1, 7-[4-(2-Amino-1-fluoro-ethylidene)-piperidin-1-yl]-1-cyclopropyl-6-fluoro-4-oxo-1,4-dihydro-[1,8]naphthyridine-3-carboxylic acid], the MIC amounted to 0.03 µg/mL (≈ 0.0768 µM) under setting [1]; 0.12 µg/mL (≈ 0.307 µM) under setting [2]; 2 µg/mL (≈ 5.12 µM) under setting [3]; 0.5 µg/mL (≈ 1.28 µM) under setting [4]; 1 µg/mL (≈ 2.56 µM) under setting [5].

Turning to `NC/C(Cl)=C1/CCCN(c2nc3c(cc2F)c(=O)c(C(=O)O)cn3C2CC2)CC1` [Compound 379, (E)-7-[4-(2-Amino-1-chloro-ethylidene)-azepan-1-yl]-1-cyclopropyl-6-fluoro-4-oxo-1,4-dihydro-[1,8]naphthyridine-3-carboxylic acid], the MIC stood at 0.25 µg/mL (≈ 0.594 µM) under setting [1]; 2 µg/mL (≈ 4.75 µM) under setting [2]; 1 µg/mL (≈ 2.38 µM) under setting [3]; 8 µg/mL (≈ 19 µM) under setting [4]; 16 µg/mL (≈ 38 µM) under setting [5].

For the compound `C[C@H]1COc2c(N3CCC/C(=C(\Cl)CN)CC3)c(F)cc3c(=O)c(C(=O)O)cn1c23` [Compound 373, (3S)-9-[(E)-4-(2-Amino-1-chloro-ethylidene)-azepan-1-yl]-8-fluoro-3-methyl-6-oxo-2,3-dihydro-6H-1-oxa-3a-aza-phenalene-5-carboxylic Acid], the MIC is 0.06 µg/mL (≈ 0.138 µM) under setting [1]; 0.12 µg/mL (≈ 0.275 µM) under setting [2]; 0.5 µg/mL (≈ 1.15 µM) under setting [3]; 2 µg/mL (≈ 4.59 µM) under setting [4]; 1 µg/mL (≈ 2.29 µM) under setting [5].

`NC/C(Cl)=C1/CCCN(c2cc3c(cc2F)c(=O)c(C(=O)O)cn3C2CC2)C1` [Compound 257, (E)-7-[3-(2-Amino-1-chloro-ethylidene)-piperidin-1-yl]-1-cyclopropyl-6-fluoro-4-oxo-1,4-dihydro-quinoline-3-carboxylic acid]: the MIC runs as follows: under setting [1], 0.03 µg/mL (≈ 0.0739 µM); under setting [2], 0.06 µg/mL (≈ 0.148 µM); under setting [3], 0.5 µg/mL (≈ 1.23 µM); under setting [4], 0.5 µg/mL (≈ 1.23 µM); under setting [5], 0.5 µg/mL (≈ 1.23 µM).

For `Nc1nc(-n2cc(C(=O)O)c(=O)c3cc(F)c(N4CC(=C(Cl)CO)C4)c(Cl)c32)c(F)cc1F` [Compound 361, 1-(6-Amino-3,5-difluoro-pyridin-2-yl)-8-chloro-7-[3-(1-chloro-2-hydroxy-ethylidene)-azetidin-1-yl]-6-fluoro-4-oxo-1,4-dihydro-quinoline-3-carboxylic acid], the MIC under setting [1] was ≤ 0.015 µg/mL; the MIC under setting [2] was ≤ 0.015 µg/mL; the MIC under setting [3] is 0.12 µg/mL (≈ 0.239 µM); the MIC under setting [4] is 0.12 µg/mL (≈ 0.239 µM); the MIC under setting [5] is 0.06 µg/mL (≈ 0.12 µM).

Consider `O=C(O)c1cn(C2CC2)c2cc(N3CCC(=CCO)CC3)c(F)cc2c1=O` [Compound 164, 1-Cyclopropyl-6-fluoro-7-[4-(2-hydroxy-ethylidene)-piperidin-1-yl]-4-oxo-1,4-dihydro-quinoline-3-carboxylic acid], for which the MIC was 0.12 µg/mL (≈ 0.322 µM) under setting [1], 2 µg/mL (≈ 5.37 µM) under setting [2], 32 µg/mL (≈ 85.9 µM) under setting [3] and > 32 µg/mL under setting [4].

As for `COc1c(N2CCC/C(=C/CN)C2)c(F)cc2c(=O)c(C(=O)O)cn(C3CC3)c12` [Compound 389, (Z)-7-[3-(2-Amino-ethylidene)-piperidin-1-yl]-1-cyclopropyl--6-fluoro-8-methoxy-4-oxo-1,4-dihydro-quinoline-3-carboxylic acid], the minimal inhibitory concentration (MIC) was ≤ 0.015 µg/mL under setting [1]; 0.06 µg/mL (≈ 0.149 µM) under setting [2]; 0.5 µg/mL (≈ 1.25 µM) under setting [3]; 1 µg/mL (≈ 2.49 µM) under setting [4]; 0.5 µg/mL (≈ 1.25 µM) under setting [5].

Regarding `C[C@H]1COc2c(N3CCC/C(=C(/Cl)CN)C3)c(F)cc3c(=O)c(C(=O)O)cn1c23` [Compound 448, (Z)-9-[3-(2-Amino-1-chloro-ethylidene)-piperidin-1-yl]-8-fluoro-(3S)-3-methyl-6-oxo-2,3-dihydro-6H-1-oxa-3a-aza-phenalene-5-carboxylic acid], the minimum inhibitory concentration (MIC) was found to be 0.25 µg/mL (≈ 0.593 µM) under setting [1], 2 µg/mL (≈ 4.74 µM) under setting [2], 8 µg/mL (≈ 19 µM) under setting [4] and 16 µg/mL (≈ 37.9 µM) under setting [5].

With `NCC(Cl)=C1CCN(c2nc3c(cc2F)c(=O)c(C(=O)O)cn3C2CC2)CC1` [Compound 3, 7-[4-(2-Amino-1-chloro-ethylidene)-piperidin-1-yl]-1-cyclopropyl-6-fluoro-4-oxo-1,4-dihydro-[1,8]naphthyridine-3-carboxylic acid], the MIC worked out at 0.06 µg/mL (≈ 0.147 µM) under setting [1]; 0.12 µg/mL (≈ 0.295 µM) under setting [2]; 1 µg/mL (≈ 2.46 µM) under setting [3]; 0.25 µg/mL (≈ 0.614 µM) under setting [4]; 1 µg/mL (≈ 2.46 µM) under setting [5].

As for `NC/C=C1/CCCN(c2c(F)cc3c(=O)c(C(=O)O)cn(-c4nc(N)c(F)cc4F)c3c2Cl)C1` [Compound 413, (Z)-1-(6-Amino-3,5-difluoro-pyridin-2-yl)-7-[3-(2-amino-ethylidene)-piperidin-1-yl]8-chloro-6-fluoro-4-oxo-1,4-dihydro-quinoline-3-carboxylic acid], the MIC is, setting by setting: under setting [1], 0.25 µg/mL (≈ 0.506 µM); under setting [2], 2 µg/mL (≈ 4.05 µM); under setting [3], 16 µg/mL (≈ 32.4 µM); under setting [4], > 16 µg/mL; under setting [5], > 16 µg/mL.

With `NC/C(Cl)=C1\CCCN(c2cc3c(cc2F)c(=O)c(C(=O)O)cn3C2CC2)C1` [Compound 258, (Z)-7-[3-(2-Amino-1-chloro-ethylidene)-piperidin-1-yl]-1-cyclopropyl-6-fluoro-4-oxo-1,4-dihydro-quinoline-3-carboxylic acid], the MIC was ≤ 4 µg/mL under setting [1]; 8 µg/mL (≈ 19.7 µM) under setting [2]; 8 µg/mL (≈ 19.7 µM) under setting [3]; > 16 µg/mL under setting [4]; > 16 µg/mL under setting [5].

In the case of `C[C@H]1COc2c(N3CCC/C(=C(/F)CN)C3)c(F)cc3c(=O)c(C(=O)O)cn1c23` [Compound 399, (Z)-9-[3-(2-Amino-1-fluoro-ethylidene)-piperidin-1-yl]-8-fluoro-(3S)-3-methyl-6-oxo-2,3-dihydro-6H-1-oxa-3a-aza-phenalene-5-carboxylic acid], the MIC by setting is: under setting [1], 0.5 µg/mL (≈ 1.23 µM); under setting [2], 2 µg/mL (≈ 4.93 µM); under setting [3], 4 µg/mL (≈ 9.87 µM); under setting [4], > 16 µg/mL; under setting [5], > 16 µg/mL.

Source of the values: US20090156577A1, “7-AMINO ALKYLIDENYL-HETEROCYCLIC QUINOLONES AND NAPHTHYRIDONES” (priority 2004, published 2009).
